Measured values from paper PMC7142784, “Antimalarial Peptide and Polyketide Natural Products from the Fijian Marine Cyanobacterium Moorea producens” (Marine Drugs, 2020).
Read-outs that look alike come from different tables or passages of the source.

Key:
HEK293T cells = assay: HEK293T cytotoxicity; settings: for HEK293T Cytotoxicity, half-maximal cytotoxicity concentration: HEK293T cells
Method: A previously described method was utilized to evaluate cytotoxicity against HepG2 and HEK293T cells as a measure of general human toxicity. Assay data generated for Plasmodium was analyzed with a Genedata Screener (v13.0-Standard). Inhibitors (puromycin for cytotoxicity and atovaquone for liver-stage parasites) were subtracted from neutral controls to normalize data. The Smart Fit function of the Genedata Analyzer generated dose-response curves that were used to calculate the half-maximal effective concentrations (EC50).

[1] = tested on: liver-stage P. berghei (Pb-Luc sporozoites in HepG2 cells); assay: microbe, parasite or virus in culture; type: cell-based, Plasmodium berghei; settings: read-out: Liver-Stage P. berghei half-maximal effective concentration (EC50)
Method: Activity against liver-stage P. berghei was quantified for extracts, fractions, and pure compounds using a slightly modified 48 h luminescence-based assay. The salivary gland of infected Anopheles stephensi was dissected to harvest P. berghei-ANKA-GFP-LucSMCON (Pb-Luc) sporozoites (originally received from Dr. Ana Rodriguez of NYU School of Medicine; last round of testing to evaluate pure 1, 3–5 used infected mosquitoes from Elizabeth Winzeler at UCSD and Dennis Kyle at UGA) which were filtered through a 20 μm nylon net filter twice (Steriflip, Millipore, MA), counted with a hemocytometer, and adjusted to achieve a final concentration of 200 sporozoites/1 μL in the assay media (DMEM without Phenol Red (Life Technologies, CA), 5% FBS, and 5 × Pen−Strep and glutamine (Life Technologies, CA)). A Multi-Flo (BioTek, VT) with a 1 μL cassette was used to transfer purified sporozoites, 1 × 10^3 sporozoites per well (5 μL), to assay plates containing HepG2 cells. After incubation at 37 °C for 48 h, a bioluminescence measurement was taken to assess the liver-stage growth. More specifically, media was removed by inverting the plates, and spinning them at 150 × g for 30 s, and 2 μL per well of BrightGlo (Promega, WI) was added for quantification of Pb-Luc viability. The luminescence was measured immediately after addition of the luminescence reagent using an Envision Multilabel Reader (PerkinElmer, MA).

rabbit muscle actin = biological target: T1, rabbit muscle actin (Oryctolagus cuniculus, UniProt P68135); assay: actin polymerization assay (pyrene-labeled rabbit muscle actin); type: biochemical
T1 construct: purchased Abcam ab239724
Description: Of the proteins predicted to bind to kakeromamide (1), actin and sortilin were deemed worthy of further evaluation given their higher predicted binding values. However, no in vitro sortilin assay is available. In contrast, actin polymerization assays are frequently employed to assess agents that affect actin dynamics, albeit using mammalian homologs of actin. Since 1 was predicted to bind to both Plasmodium and mammalian actin proteins but only mammalian actin assays are commercially available, an actin polymerization assay that uses pyrene-labeled rabbit muscle actin was employed. Several natural products are known to disrupt actin’s function by either inhibiting or stabilizing polymerization, which could arise from ligand binding. Since apicomplexan actins (including those of Plasmodium) and mammalian actins are relatively divergent, Plasmodium actin might be a useful molecular target. […] Similar activity by 1 could be one possible explanation for the observed increase in actin polymerization with increasing concentrations of 1. Although 1 appears to impact mammalian actin polymerization, future tests evaluating the impact of 1 on Plasmodium actin function would be worthwhile in order to further elucidate whether interactions with actin are relevant to this natural product’s mechanism of action on the malaria parasite.
The computationally predicted binding of 1 to actin was experimentally evaluated using a rabbit muscle actin polymerization assay kit from Abcam (kit ab239724) using the manufacturer’s protocol. Mean signal for n = 3 (actin polymerization control, solvent control, and background) or n = 2 (four different concentrations of latrunculin A and kakeromamide B) replicates was acquired for time points taken every 30 s for 1 h on a Synergy H4 plate reader. The results were plotted in GraphPad Prism 8 with an exponential plateau curve.

HepG2 cells = assay: HepG2 cytotoxicity; type: cell-based, human; settings: for HepG2 Cytotoxicity, half-maximal cytotoxicity concentration: HepG2 cells
Method: A previously described method was utilized to evaluate cytotoxicity against HepG2 and HEK293T cells as a measure of general human toxicity [52]. Assay data generated for Plasmodium was analyzed with a Genedata Screener (v13.0-Standard). Inhibitors (puromycin for cytotoxicity and atovaquone for liver-stage parasites) were subtracted from neutral controls to normalize data. The Smart Fit function of the Genedata Analyzer generated dose-response curves that were used to calculate the half-maximal effective concentrations (EC50).

[2] = tested on: asexual blood-stage P. falciparum strain Dd2L; assay: asexual blood-stage P. falciparum assay with SYBR Green detection; type: cell-based, Plasmodium falciparum; settings: for blood-stage antimalarial activity (in words): P. falciparum; for EC50: Plasmodium falciparum, 72 h
Method: A standard method for evaluating antimalarial activity with asexual blood-stage P. falciparum and SYBR Green detection was used to assess the potency of extracts, fractions, and compounds [50]. Screening media was prepared from complete media supplemented with 0.05% Albumax II (but without human serum). Dr. David Fidock of Columbia University provided P. falciparum strain Dd2L, which was cultured with fresh O+ erythrocytes (TSRI Normal Blood Donation). Compounds were transferred to assay plates using a Labcyte ECHO acoustic liquid handler. Fresh and parasitized erythrocytes were prepared in screening media before inoculating plates (Multi-Flo; BioTek, VT) with a final hematocrit of 2.5% and a final parasitemia of 0.3%. The assay plates were incubated for 72 h in a chamber at 37 °C with a low oxygen gas formulation with daily gas exchanges. After incubation, a Multi-Flo liquid dispenser transferred SYBR Green lysis buffer to the wells, and the plates were incubated for another 24 h at room temperature to achieve optimal development of fluorescence signal, which was read by an Envision Multimode Reader (PerkinElmer, MA).

[3] = Plasmodium berghei, HepG2, 48 h, sporozoites from University of California San Diego (UCSD), 48 h
[4] = Plasmodium berghei, HepG2, 48 h, sporozoites from the University of Georgia (UGA), 48 h
[5] = read-out: Blood-Stage P. falciparum half-maximal effective concentration (EC50), asexual blood-stage, strain Dd2L, 72 h, SYBR Green
[6] = Plasmodium berghei, HepG2, 48 h

Structure (SMILES)	HEK293T Cytotoxicity, half-maximal cytotoxicity concentration (HEK293T cells) [µM]	EC50 [1, 3] [µM]	EC50 [1, 4] [µM]	HepG2 Cytotoxicity, half-maximal cytotoxicity concentration (HepG2 cells) [µM]	blood-stage antimalarial activity (in words) [2]	EC50 [2, 5] [µM]	other results
O=C1C(O)=C([C@H]2CC[C@H](c3ccc(Cl)cc3)CC2)C(=O)c2ccccc21 [Atovaquone, reference compound]	>2.0	0.0037	0.0017	–	–	–	EC50 ([1]; Plasmodium berghei, HepG2, 48 h, sporozoites sourced from New York University (NYU) School of Medicine, 48 h): < 0.00028 µM
CCCCCC1NC(=O)c2csc(n2)C(C)NC(=O)C(Cc2ccc(OC)cc2)N(C)C(=O)C(Cc2ccc(OC)cc2)N(C)C(=O)C(C(C)C)NC(=O)C1C (stereo not shown) [Compound 1, kakeromamide B]	>23	> 12	11	>23	only moderately active	8.9	cytotoxicity against HEK293T (in words) (HEK293T cells; HEK293T human cell line): did not exhibit toxicity; effect on mammalian actin polymerization (in words) (rabbit muscle actin; dose dependence): stimulated actin polymerization in a dose-dependent manner; effect on actin polymerization relative to controls (rabbit muscle actin; highest tested concentration, 25 µM, Figure S23): enhancing actin polymerization; effect on actin polymerization relative to controls (rabbit muscle actin; lowest tested concentration, 0.025 µM, Figure S23): moderately suppressed polymerization; cytotoxicity against HepG2 / human liver cells (in words) (HepG2 cells; HepG2 human cell line): did not exhibit toxicity
CCC[C@H]1NC(=O)c2csc(n2)[C@H](C)NC(=O)[C@H](C(C)C)N(C)C(=O)[C@H](Cc2ccccc2)N(C)C(=O)[C@H](C)OC(=O)[C@@H]1C [Compound 2, ulongamide A]	>4.8	–	–	–	–	–	EC50 [1, 6]: > 4 µM; EC50 ([2]; read-out: Blood-Stage P. falciparum half-maximal effective concentration (EC50)): 0.99 µM
CC[C@H](C)[C@@H]1NC(=O)CNC(=O)c2csc(n2)[C@H](C(C)(C)O)OC(=O)C(C)(C)[C@H](CCCC(C)(Cl)Cl)OC(=O)c2csc1n2 [Compound 3, lyngbyabellin A]	19	–	–	3.3	–	0.0015	selectivity index for Plasmodium versus HEK293T (HEK293T cells; blood-stage P. falciparum versus normal kidney epithelial cells (HEK293T)): 13,000; selectivity index for Plasmodium versus HepG2 (HepG2 cells; blood-stage P. falciparum versus human liver carcinoma cells (HepG2)): 2,200; EC50 [1, 6]: > 10 µM; EC50 ([1]; sporozoites from University of California San Diego (UCSD), 48 h): > 10 µM
CO[C@@H]1[C@@H](OC)[C@H](C)O[C@@H](O[C@@H]2C[C@@H]3CC[C@H](C)[C@@H](O)C[C@](C)(CC/C=C/C=C/Br)OC(=O)C[C@](O)(C2)O3)[C@@H]1OC [Compound 4, 18E-lyngbyaloside C]	>31	> 16	7.1	17	inactive	> 19	–
CO[C@@H]1[C@@H](OC)[C@H](C)O[C@@H](O[C@@H]2C[C@H]3O[C@@](O)(C2)[C@H](C)C(=O)O[C@@H](/C=C/C=C/Br)C[C@@H](C)/C=C\C[C@H](O)[C@@H]3C)[C@@H]1OC [Compound 5, lyngbyaloside]	>13	> 6.3	4.5	>13	inactive	> 7.9	–
CC1(C)c2nc(-c3ccc(F)cc3)c(Nc3ccc(F)cc3)n2CCN1C(=O)CN [ganaplacide, reference compound]	–	–	–	–	–	0.0059	–
C/C1=C/C(=O)O[C@@H]2C[C@@H](CC[C@H](C)/C=C\C=C\CC1)O[C@@](O)([C@@H]1CSC(=O)N1)C2 [latrunculin A, reference compound]	–	–	–	–	–	–	concentrations at which actin polymerization was suppressed (rabbit muscle actin; Figure S23): above 1.2 µM
OC(c1cc(C(F)(F)F)nc2c(C(F)(F)F)cccc12)C1CCCCN1 (stereo not shown) [mefloquine, reference compound]	–	–	–	–	–	0.0029	–
